Source: US5049552A, “Compositions containing hexadecylphosphocholine and use thereof” (Max-Planck-Gesellschaft fur Foerderung der Wissenschaften …, priority 1985, dated 1991)
Read-outs that look alike come from different tables or passages of the source.

What was measured:
[1] = subacute toxicity during a treatment of 5 weeks (mortality, median survival time); format: in vivo, rat
Text: (§1) Hexadecylphosphocholine is a known substance. […] Therefore, in spite of an anti-tumor action, the median survival time in comparison with the control was shortened by 72% in the case of octadecylphosphocholine-treated animals.

[2] = tested on: chemically induced mammary carcinomas; test: chemically induced mammary carcinoma of the rat (7,12-dimethylbenzanthracene or methylnitrosourea), in vivo; details: for minimal effective dose / effect on tumor growth / general dose range for the action / general dose range for the action, especially: rat; for minimal effective dose: read-out: lowest already effective dose
Text: For oral administration, hexadecylphosphocholine is used, for example, in the form of a potable solution. As carriers there are suitable, for example, milk, cocoa, fruit juice or drinking water. The preparation of such a potable solution takes place, for example, by dilution of a concentrated alcoholic solution of hexadecylphosphocholine with water or another of the previously mentioned agents. […] In the case of the tumor model used for these experiments, it is a question of a so-called hard model. This means that findings obtained with this model can also be transmitted to the human situation.

[3] = tested on: methylnitrosourea-induced mammary carcinoma; test: methylnitrosourea-induced mammary carcinoma of the rat, in vivo
Text: as §1

[4] = Pharmazie 37, 1982, pages 706-707; cited from earlier work
tumors = test: anti-tumor action and toxicity, general statement (homologous alkyl compounds); details: for anti-tumor action / toxicity: general statement
[5] = tested on: 7,12-dimethylbenzanthracene-induced mammary carcinoma; test: 7,12-dimethylbenzanthracene-induced mammary carcinoma of the rat; format: in vivo
L1210 = L1210 colony experiment in vitro; format: cell-based
[6] = 5 weeks, daily dose 77 μmole/kg rat orally

Question: For `CCCCCCCCCCCCCCCCOP(=O)([O-])OCC[N+](C)(C)C` [hexadecylphosphocholine], which “mortality in comparison with octadecylphosphocholine-treated animals” value [1, 6] is on record?
Answer: lower by a half

Question: What about the “increase of the median survival time in comparison with the controls” value ([1]; 5 weeks, highly significant) of the same compound?
Answer: 26%

Question: And the chronic toxicity ([1]; rat, oral)?
Answer: absence of a chronic toxicity

Question: And the minimal effective dose ([2]; iv, intravenously)?
Answer: 5 mg/kg

Question: What about the minimal effective dose ([2]; po, orally) of the same compound?
Answer: 5 mg/kg

Question: What about the “effect on tumor growth” value ([2]; 10 mg./kg. body weight) of the same compound?
Answer: cessation of growth of the tumors

Question: And the “effect on tumor growth” value ([2]; doses higher than 10 mg./kg.)?
Answer: complete disappearance of the growths

Question: And the “general dose range for the action” value ([2]; intravenously)?
Answer: 5 to 50 mg/kg

Question: And the “general dose range for the action, especially” value ([2]; intravenously)?
Answer: 15 to 32 mg/kg

Question: What about the “general dose range for the action” value ([2]; orally) of the same compound?
Answer: 5 to 50 mg/kg

Question: What about the “general dose range for the action, especially” value ([2]; orally) of the same compound?
Answer: 15 to 32 mg/kg

Question: What about the “remission of chemically induced mammary carcinomas” value ([2]; rats, daily doses of 20, 40 and 60 mg./kg., oral) of the same compound?
Answer: complete remission

Question: What about the “compatibility versus 1-octadecyl-2-methyl-rac-glycero-3-phosphocholine” value ([2]; rats, oral) of the same compound?
Answer: better compatible

Question: What about the “effectiveness versus 1-octadecyl-2-methyl-rac-glycero-3-phosphocholine” value ([2]; rats, oral) of the same compound?
Answer: better effective

Question: What about the “action on methylnitrosourea-induced mammary carcinoma” value ([3]; rat) of the same compound?
Answer: good action

Question: And the “lysing and fusogenic action” value [4]?
Answer: a lysing and fusogenic action

Question: And the anti-tumor action (tumors)?
Answer: practically useful good anti-tumor action

Question: What about the toxicity (tumors) of the same compound?
Answer: sufficient anti-tumor action in non-toxic doses

Question: What about the anti-tumor action (tumors; listed as Hexadecylphosphocholine) of the same compound?
Answer: excellent anti-tumor action

Question: What about the “synergistic increase of antitumor action with alkylglycerols / glycerol ethers of formula I” value (tumors; hexadecylphosphocholine together with alkylglycerol) of the same compound?
Answer: synergistic action increase of the antitumor action

Question: And the “action on 7,12-dimethylbenzanthracene-induced mammary carcinoma” value [5]?
Answer: good action

Question: Which “shortening of median survival time in comparison with the control” value [1, 6] does the source give for `CCCCCCCCCCCCCCCCCCOP(=O)([O-])OCC[N+](C)(C)C` [octadecylphosphocholine, reference compound] here?
Answer: 72%

Question: And the mortality at 840 h ([1]; in vivo, po, 77 umol/kg, 5 weeks, daily dose 77 μmole/kg rat orally, read-out: mortality (of all animals))?
Answer: 80%

Question: What about the anti-tumor action (tumors) of the same compound?
Answer: anti-tumor effective

Question: And the toxicity (tumors)?
Answer: far too toxic

Question: For `CCCCCCCCCCCCCCOP(=O)([O-])OCC[N+](C)(C)C` [tetradecylphosphocholine, reference compound], which anti-tumor action ([3]; in vivo, autochthonous methylnitrosourea-induced mammary carcinoma of the rat) is on record?
Answer: practically no anti-tumor action

Question: What about the anti-tumor action (L1210) of the same compound?
Answer: practically no anti-tumor action
